Key:
BMAA4-2 cell line = assay: Sequence change analysis using BMAA4-2 cell line according to flow cytometry (cIgM+_Sema3A− population); assay type: cell-based, chicken; conditions: BMAA4-2 cells, FCM at 1 week of culture, versus negative control CS(−)
Description: A frozen stock of the BMAA4-2 cell line (3.0×10^6 cells) was awaken with 10 mL of CS(−) medium, using a 25 cm^2 Flask (Corning, 430639), and the cells were then cultured in a CO2 incubator (SANYO CO2 Incubator MCO-20AIC, 39.5° C., 5% CO2). On the following day, 500 μL each of a CS(−) medium, to which each drug had been added, was added into each well of a 48-well dish (Nunc, 150687), and the cells were then seeded thereon to a cell density of 6.0×10^4 cells/mL (wherein the cell concentration and the survival rate were measured using CASY cell counter (Nepa Gene)). After individual samples had been cultured for 2 days, the samples were subcultured under the same conditions to result in a cell density of 1.0×10^4 cells/mL. […] Thereafter, a plot, in which the vertical axis indicated APC (AF647-labeled Sema3A) and the longitudinal axis indicated PE (Mouse Anti-Chicken IgM-PE), was developed, and the percentage of PE+ (cIgM+)_APC− (Sema3A−) cells was then calculated.
Using the BMAA4-2 cell line, a system for screening for a diversification-promoting compound was constructed (FIG. 1). […] Thus, the percentage of cIgM+_Sema3A− populations under individual culture conditions is measured and compared according to FCM, so that the effect of promoting changes in the amino acid sequences (i.e., the effect of promoting the diversification of the amino acid sequences) can be evaluated.

CL18_M− cell line = assay: Light chain gene conversion (GC) analysis according to Reversion assay; assay type: cell-based, chicken; conditions: one and two weeks of culture, PI3Kα Inhibitor 2 at 200 nM, versus CAL-101, CZC 24832, AS 604850 and CS(−)
Description: A frozen stock of the CL18_M− cell line (3.0×10^6 cells) was awaken with 10 mL of CS(−) medium, using a 25 cm^2 Flask, and the cells were then cultured in a CO2 incubator (39.5° C., 5% CO2). On the following day, 2 mL each of a CS(−) medium, to which each drug had been added, was added into each well of a 24 deep well plate (ThermoFisher Scientific, 95040480), and the cells were then seeded thereon to a cell density of 6.0×10^4 cells/mL (wherein the cell concentration and the survival rate were measured using CASY cell counter). After individual samples had been cultured for 2 days, the samples were subcultured under the same conditions to result in a cell density of 1.0×10^4 cells/mL. […] Thereafter, a plot, in which the vertical axis indicated FITC (Goat anti-Chicken IgM Antibody FITC Conjugated) and the longitudinal axis indicated PE (none), was developed, and the percentage of PE-_FITC+(cIgM+) cells was then calculated.
Meanwhile, after completion of the culture for 7 days, individual samples were subcultured under the same conditions to result in a cell density of 6.0×10^4 cells/mL. […] At the time point of Day 14 of the culture, individual samples were measured using FACS Canto II Flow Cytometer, as with the measurement on Day 7. […]

`Cc1nc(NC(=O)N2CCC[C@H]2C(N)=O)sc1-c1csc(C(C)(C)C)n1` [A66] was tested, and the “percentage of cIgM+_Sema3A− populations (sequence change-promoting action)” value (BMAA4-2 cell line) was “highest sequence change-promoting action” and the “Reversion activity (percentage of IgM expression-positive cells)” value (CL18_M− cell line) was “higher Reversion activity”.

Source: patent publication US11572402B2, “Method for promoting diversification of antibody variable region” (Chiome Bioscience Inc., priority 2017, dated 2023)
